Experimental findings from PubChem BioAssay (NCI) are described below.

Common to all, as to test: inhibition of tumour cell growth, NCI panel, 48 h
The test system of experiment [1] is ACHN renal.
The test system of experiment [2] is CAKI-1 renal.
Experiment [3] has as its system HL-60(TB) leukemia.
The test system of experiment [4] is LOX IMVI melanoma.
Experiment [5] deals with NCI-H23 lung.
Experiment [6] concerns NCI-H460 lung.
For experiment [7], the system named is OVCAR-3 ovarian.
The subject of experiment [8] is SF-295 CNS.
Experiment [9] concerns SK-MEL-28 melanoma.
Experiment [10] has as its system SR leukemia.

The structures appear in SMILES notation. Where “and” joins values, the source holds several entries; their conditions need not be identical. Identical values can stand only once.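 Method: 48-hour compound exposure of cells in 96-well plates, five concentrations, linear interpolation of endpoints. GI50 is the concentration that inhibits growth by half. TGI: total growth inhibition.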 Some results are limits rather than exact numbers.

`CCCOc1ccc2nc(NC(=O)OC)[nH]c2c1`: the GI50 was 1.2 µM in [1]; 0.29 µM in [2]; 0.171 µM in experiment [3]; 0.778 µM in experiment [4]; 0.34 µM in experiment [5]; 0.324 µM in experiment [6]. Further, the GI50 was 0.396 µM in [7], 0.215 µM in [8], 0.285 µM in experiment [9] and 0.0319 µM in experiment [10]. Further, the TGI is greater than 100 µM in experiment [1]; greater than 100 µM in experiment [2]; 0.681 µM in [3]; greater than 100 µM in [4]; greater than 100 µM in experiment [5]; greater than 100 µM in experiment [6]. Also, the TGI in [7], in experiment [8], in experiment [9] and in experiment [10] was greater than 100 µM in each case.
As to `CCOC(=O)c1cc(/C=C/C(C)=C/C(=O)OC)oc1C`, the TGI in experiment [1], in experiment [2], in [3], in experiment [4], in experiment [5] and in experiment [6] was greater than 100 µM each time. The TGI in experiment [7], in experiment [8], in experiment [9] and in experiment [10] was greater than 100 µM throughout.
For the molecule `COC1OC(CO)C(O)C1N` (configuration not stated), the TGI in experiment [1], in [2], in experiment [3], in experiment [4], in [5] and in experiment [6] was greater than 100 µM in each case. For the same molecule, the TGI in experiment [7], in experiment [8], in experiment [9] and in [10] was greater than 100 µM in each case.
Take `CS(=O)(=O)CSCSSCS(C)(=O)=O`: the TGI in [1] was greater than 100 µM; in experiment [2] it was greater than 57.2 µM; in experiment [3], 55.7 µM; in experiment [4] it was 71.2 µM; in experiment [5], greater than 95.9 µM; in experiment [6], greater than 84.8 µM. The TGI in [7] is greater than 100 µM; in [8], 55.7 µM; in [9], 66.4 µM; in [10], greater than 91.8 µM.
On to `O=C(O)c1ccc2c(c1)CCCC(c1ccc(Cl)cc1Cl)=C2c1ccc(O[C@H]2CCN(CCCF)C2)cc1`, for which the GI50 was 11.7 µM in experiment [1]; 11.5 µM in [2]; 7.41 µM in [3]; 11 µM in [4]; 13.2 µM in experiment [5]; 9.27 µM in experiment [6]. Further, the GI50 in experiment [7] was 12.1 µM; in experiment [8], 7.86 µM; in experiment [9], 11.5 µM; in experiment [10] it was 4.87 µM. For the same molecule, the TGI is 24.3 µM in experiment [1]; 24 µM in experiment [2]; 22.7 µM in experiment [3]; 26.1 µM in experiment [4]; 29.3 µM in experiment [5]; 23.8 µM in experiment [6]. In addition, the TGI in experiment [7] came to 24.7 µM; in experiment [8] it was 20.5 µM; in [9], 25.1 µM; in experiment [10] it was 20.7 µM.
With `O=C1NC(=S)S/C1=C(/C=C(\CC(=O)c1ccccc1)c1ccc(Cl)cc1)c1ccccc1`, the GI50 in experiment [1] was 25.5 µM; in experiment [2], 33.7 µM; in experiment [3] it was 21.7 µM; in experiment [4] it was 37.6 µM; in experiment [5], 21.8 µM; in experiment [6], 19.9 µM. Moreover, the GI50 in experiment [7] was 24.2 µM; in [8] it was 23.4 µM; in [9], 61.9 µM; in experiment [10], 27 µM. Moreover, the TGI in experiment [1] was 61.3 µM; in experiment [2], greater than 100 µM; in experiment [3], 55.2 µM; in [4], greater than 100 µM; in experiment [5], 48.8 µM; in [6], 45.7 µM. The TGI is greater than 100 µM in experiment [7], 64.7 µM in experiment [8], greater than 100 µM in experiment [9] and 63.3 µM in [10].
Take `C[C@]12CCCC(=O)C1(O)C[C@H](C(=O)O)CC2` (some centres not stated): the TGI in experiment [1], in [2], in experiment [3], in experiment [4], in experiment [5] and in experiment [6] was greater than 100 µM each time. The TGI in [7], in experiment [8], in experiment [9] and in [10] was greater than 100 µM throughout.
Take `CC[C@]1(O)C(=O)OCc2c1cc1n(c2=O)Cc2cc3c(N)cccc3nc2-1`: the TGI in [1], in experiment [2], in experiment [3], in experiment [4], in [5] and in experiment [6] was greater than 100 µM in each case. The TGI in experiment [7], in [8], in experiment [9] and in experiment [10] was greater than 100 µM throughout.
For the molecule `Nc1ccc(C(=O)CC(N)C(=O)O)cc1O` (configuration not stated), the TGI in experiment [1], in experiment [2], in experiment [3], in [4], in experiment [5] and in [6] was greater than 100 µM in each case. In addition, the TGI in experiment [7], in [8], in experiment [9] and in experiment [10] was greater than 100 µM in each case.
`NC(=O)c1cc2c3ccccc3ccn2c1-c1ccccc1`: the GI50 in experiment [1] was 3.17 µM; in [2] it was 0.143 µM; in experiment [3], 0.242 µM; in experiment [4], 0.0912 µM; in [5] it was 0.319 µM; in [6], 0.042 µM. For the same molecule, the GI50 in experiment [7] is 0.0272 µM; in experiment [8], 0.0304 µM; in experiment [9], 14.7 µM; in experiment [10], 0.0933 µM. Besides, the TGI in [1] came out at 30.5 µM; in [2], 3.54 µM; in experiment [3], 2.96 µM; in [4], 16.2 µM; in experiment [5], 14.4 µM; in [6], 10.5 µM. The TGI in experiment [7] stood at 0.072 µM; in experiment [8], 1.05 µM; in experiment [9], 34.5 µM; in experiment [10] it was 3.75 µM.
As for `C/C=C1\NC(=O)[C@H]2CSSCCC=C[C@H](CC(=O)N[C@H](C(C)C)C(=O)N2)OC(=O)[C@H](C(C)C)NC1=O`, the GI50 in experiment [1] was less than 0.01 µM; in experiment [2], less than 0.0339 µM; in [3], < 0.01 µM and 0.000299 µM; in [4], < 0.01 µM and 0.000122 µM; in experiment [5] it was less than 0.01 µM; in [6], less than 0.01 µM. Moreover, the GI50 is less than 0.01 µM in [7]; less than 0.01 µM in [8]; less than 0.01 µM in experiment [9]; < 0.01 µM and 0.000119 µM in [10]. The TGI in experiment [1] is 0.0459 µM and 0.0364 µM; in experiment [2], 0.0772 µM and 0.0244 µM and < 0.0104 µM; in [4], < 0.01 µM and 0.00104 µM; in experiment [7] it was < 0.0108 µM and 0.00294 µM; in experiment [8] it was < 0.01 µM and 0.013 µM; in experiment [9] it was < 0.01 µM and 0.0175 µM and < 0.0122 µM. Also, the TGI in experiment [10] was 0.221 µM and 0.0286 µM and 0.047 µM.
